Measured values: ChEMBL document CHEMBL2331400, “Structure-based design and evaluation of naphthalene diimide G-quadruplex ligands as telomere targeting agents in pancreatic cancer cells” (J Med Chem, 2013)
Activity calls are given as the source filed them. The calls are words filed in the database; no cut-off is given here.

What was measured:
MIA PaCa-2 [1] = experiment: Induction of ATM/[…] gene expression in human MIAPaCa2 cells by qPCR analysis; format: functional, cell-based
A549 = experiment: Cytotoxicity against human A549 cells assessed as growth inhibition after 96 hrs by SRB assay; format: functional, cell-based; settings: A549, 96 h
MIA PaCa-2 [2] = experiment: Upregulation of UNG gene expression in human MIAPaCa2 cells at sublethal concentration after 24 hrs by qPCR analysis; format: functional, cell-based
MIA PaCa-2 [3] = experiment: Downregulation of CDKN1A gene expression in human MIAPaCa2 cells at subcytotoxic concentration after 24 hrs by qPCR analysis; format: functional, cell-based
MIA PaCa-2 [4] = experiment: Inhibition of telomerase activity in human MIAPaCa2 cells assessed as telomere elongation at 5 to 7.5 nM after 7 days by TRAP-LIG assay; format: cell-based
MIA PaCa-2 [5] = experiment: Downregulation of PPM1D gene expression in human MIAPaCa2 cells at subcytotoxic concentration after 24 hrs by qPCR analysis; format: functional, cell-based
MIA PaCa-2 [6] = experiment: Downregulation of […] gene expression in human MIAPaCa2 cells at 20 to 80 nM after 24 hrs by qPCR analysis relative to solvent-treated control; format: functional
MIA PaCa-2 [7] = experiment: Upregulation of NTHL1 gene expression in human MIAPaCa2 cells at sublethal concentration after 24 hrs by qPCR analysis; format: functional, cell-based
MIA PaCa-2 [8] = experiment: Cytotoxicity against human MIAPaCa2 cells assessed as growth inhibition at 5 to 40 nM up to 96 hrs by microscopic analysis; format: functional, cell-based
MIA PaCa-2 [9] = experiment: Upregulation of NHP2 gene expression in human MIAPaCa2 cells at 20 to 80 nM after 24 hrs by qPCR analysis relative to solvent-treated control; format: functional
unidentified = experiment: Stabilization of duplex DNA T-loop (unknown origin) 5'-FAM-dTATAGCTATA-HEG-TATAGCTATA-TAMRA-3' assessed as melting temperature at 1 uM by FRET assay
MIA PaCa-2 [10] = experiment: Downregulation of DDIT3 gene expression in human MIAPaCa2 cells at subcytotoxic concentration after 24 hrs by qPCR analysis; format: functional, cell-based
MIA PaCa-2 [11] = experiment: Downregulation of SLX4 gene expression in human MIAPaCa2 cells at 20 to 80 nM after 24 hrs by qPCR analysis relative to solvent-treated control; format: functional
MIA PaCa-2 [12] = experiment: Upregulation of DDIT3 gene expression in human MIAPaCa2 cells at cytotoxic concentration after 24 hrs by qPCR analysis; format: functional, cell-based
MIA PaCa-2 [13] = experiment: Upregulation of PPM1D gene expression in human MIAPaCa2 cells at cytotoxic concentration after 24 hrs by qPCR analysis; format: functional, cell-based
MIA PaCa-2 [14] = experiment: Induction of ATR/[…] gene expression in human MIAPaCa2 cells by qPCR analysis; format: functional, cell-based
MIA PaCa-2 [15] = experiment: Upregulation of GADD45G gene expression in human MIAPaCa2 cells at cytotoxic concentration after 24 hrs by qPCR analysis; format: functional, cell-based
MIA PaCa-2 [16] = experiment: Downregulation of MPG gene expression in human MIAPaCa2 cells at 20 to 160 nM after 24 hrs by qPCR analysis relative to solvent-treated control; format: functional, cell-based
MIA PaCa-2 [17] = experiment: Downregulation of GADD45G gene expression in human MIAPaCa2 cells at subcytotoxic concentration after 24 hrs by qPCR analysis; format: functional, cell-based
MIA PaCa-2 [18] = experiment: Downregulation of TP73 gene expression in human MIAPaCa2 cells at 160 nM after 24 hrs by qPCR analysis; format: functional, cell-based
MIA PaCa-2 [19] = experiment: Downregulation of CDK7 gene expression in human MIAPaCa2 cells at 20 to 160 nM after 24 hrs by qPCR analysis relative to solvent-treated control; format: functional, cell-based
MIA PaCa-2 [20] = experiment: Upregulation of TP73 gene expression in human MIAPaCa2 cells at sublethal concentration after 24 hrs by qPCR analysis; format: functional, cell-based
MIA PaCa-2 [21] = experiment: Downregulation of POT1 gene expression in human MIAPaCa2 cells at 20 to 80 nM after 24 hrs by qPCR analysis relative to solvent-treated control; format: functional, cell-based
MIA PaCa-2 [22] = experiment: Downregulation of NBN gene expression in human MIAPaCa2 cells at 20 to 160 nM after 24 hrs by qPCR analysis relative to solvent-treated control; format: functional, cell-based
MIA PaCa-2 [23] = experiment: Upregulation of CDKN1A gene expression in human MIAPaCa2 cells at cytotoxic concentration after 24 hrs by qPCR analysis; format: functional, cell-based
MIA PaCa-2 [24] = experiment: Downregulation of HUS1 gene expression in human MIAPaCa2 cells at 20 to 160 nM after 24 hrs by qPCR analysis relative to solvent-treated control; format: functional, cell-based
MIA PaCa-2 [25] = experiment: Downregulation of RAD50 gene expression in human MIAPaCa2 cells at 20 to 160 nM after 24 hrs by qPCR analysis relative to solvent-treated control; format: functional, cell-based
MIA PaCa-2 [26] = experiment: Downregulation of RASSF1 gene expression in human MIAPaCa2 cells at 20 to 80 nM after 24 hrs by qPCR analysis relative to solvent-treated control; format: functional
MCF7 = experiment: Cytotoxicity against human MCF7 cells assessed as growth inhibition after 96 hrs by SRB assay; format: functional, cell-based; settings: MCF7, 96 h
MIA PaCa-2 [27] = experiment: Downregulation of BAX gene expression in human MIAPaCa2 cells at 20 to 160 nM after 24 hrs by qPCR analysis relative to solvent-treated control; format: functional, cell-based
MIA PaCa-2 [28] = experiment: Cytotoxicity against human MIAPaCa2 cells assessed as growth inhibition after 96 hrs by SRB assay; format: functional, cell-based; settings: MIA PaCa-2, 96 h
MIA PaCa-2 [29] = experiment: Downregulation of PTGES3 gene expression in human MIAPaCa2 cells at 20 to 80 nM after 24 hrs by qPCR analysis relative to solvent-treated control; format: functional, cell-based
MIA PaCa-2 [30] = experiment: Downregulation of PARP1 gene expression in human MIAPaCa2 cells at 20 to 160 nM after 24 hrs by qPCR analysis relative to solvent-treated control; format: functional, cell-based
786-0 = experiment: Cytotoxicity against human 786-0 cells assessed as growth inhibition after 96 hrs by SRB assay; format: functional, cell-based; settings: 786-0, 96 h
Homo sapiens = species on record: Homo sapiens; experiment: Stabilization of human telomeric G-quadruplex DNA sequence 5'-FAM-d(GGG[TTAGGG]3)-TAMRA-3' assessed as melting temperature at 1 uM by FRET assay
MIA PaCa-2 [31] = experiment: Induction of senescence in human MIAPaCa2 cells at 3.3 to 6.6 nM after 7 days by beta-galactosidase assay relative to vehicle-treated control; format: functional
MIA PaCa-2 [32] = experiment: Inhibition of telomerase activity in human MIAPaCa2 cells assessed as telomere elongation up to 10 uM after 7 days by TRAP-LIG assay; format: cell-based
MIA PaCa-2 [33] = experiment: Upregulation of PRKCB gene expression in human MIAPaCa2 cells at 20 to 80 nM after 24 hrs by qPCR analysis relative to solvent-treated control; format: functional
WI-38 = experiment: Cytotoxicity against human WI38 cells assessed as growth inhibition after 96 hrs by SRB assay; format: cell-based; settings: WI-38, 96 h
MIA PaCa-2 [34] = experiment: Upregulation of PPP1R15A gene expression in human MIAPaCa2 cells at cytotoxic concentration after 24 hrs by qPCR analysis; format: functional, cell-based
MIA PaCa-2 [35] = experiment: Upregulation of MYC gene expression in human MIAPaCa2 cells at 20 to 80 nM by qPCR analysis relative to solvent-treated control; format: functional

For `CN1CCN(CCCNc2cc3c4c(c(NCCCN5CCN(C)CC5)cc5c4c2C(=O)N(CCCN2CCOCC2)C5=O)C(=O)N(CCCN2CCOCC2)C3=O)CC1`, the Activity (MIA PaCa-2 [1]) was “inactive”, the IC50 (A549) was less than 10 nM and the Activity (MIA PaCa-2 [2]) was “inactive”. For the same molecule, the Activity (MIA PaCa-2 [3]) was “inactive”, the inhibition (MIA PaCa-2 [4]) was “inactive” and the Activity (MIA PaCa-2 [5]) was “inactive”. For the same molecule, the “fold change (FC)” value (MIA PaCa-2 [6]) was greater than 2, the Activity (MIA PaCa-2 [7]) was “inactive” and the “growth inhibition (GI)” value (MIA PaCa-2 [8]) was “Active”. For the same molecule, the “fold change (FC)” value (MIA PaCa-2 [9]) was greater than 2, the ΔTm (unidentified) was 4.9 °C and the Activity (MIA PaCa-2 [10]) was “inactive”. The “fold change (FC)” value (MIA PaCa-2 [11]) was greater than 2, the Activity (MIA PaCa-2 [12]) was “Active” and the Activity (MIA PaCa-2 [13]) was “Active”. For the same molecule, the Activity (MIA PaCa-2 [14]) was “inactive”, the Activity (MIA PaCa-2 [15]) was “Active” and the Activity (MIA PaCa-2 [16]) was “Active”. The Activity (MIA PaCa-2 [17]) was “inactive”, the Activity (MIA PaCa-2 [18]) was “Active” and the Activity (MIA PaCa-2 [19]) was “Active”. For the same molecule, the Activity (MIA PaCa-2 [20]) was “inactive”, the Activity (MIA PaCa-2 [21]) was “Active” and the Activity (MIA PaCa-2 [22]) was “Active”. The Activity (MIA PaCa-2 [23]) was “Active”, the Activity (MIA PaCa-2 [24]) was “Active” and the Activity (MIA PaCa-2 [25]) was “Active”. The “fold change (FC)” value (MIA PaCa-2 [26]) was greater than 2, the IC50 (MCF7) was 70 nM and the Activity (MIA PaCa-2 [27]) was “Active”. The IC50 (MIA PaCa-2 [28]) was 10 nM, the Activity (MIA PaCa-2 [29]) was “Active” and the Activity (MIA PaCa-2 [30]) was “Active”. It also gave an IC50 (786-0) of 320 nM, a ΔTm (Homo sapiens) of 26.6 °C and an Activity (MIA PaCa-2 [31]) of 50%. The inhibition (MIA PaCa-2 [32]) was “inactive”, the “fold change (FC)” value (MIA PaCa-2 [33]) was greater than 2 and the IC50 (WI-38) was 230 nM. The Activity (MIA PaCa-2 [34]) was “Active” and the “fold change (FC)” value (MIA PaCa-2 [35]) was greater than 2.
